For assay [1], the target named is T1, calcium sensing receptor as found in the human parathyroid gland (Homo sapiens, UniProt P41180).
T1 construct: expressed in transfected cells; host or cells: HEK 293
T1 sequence (P41180 20-1078): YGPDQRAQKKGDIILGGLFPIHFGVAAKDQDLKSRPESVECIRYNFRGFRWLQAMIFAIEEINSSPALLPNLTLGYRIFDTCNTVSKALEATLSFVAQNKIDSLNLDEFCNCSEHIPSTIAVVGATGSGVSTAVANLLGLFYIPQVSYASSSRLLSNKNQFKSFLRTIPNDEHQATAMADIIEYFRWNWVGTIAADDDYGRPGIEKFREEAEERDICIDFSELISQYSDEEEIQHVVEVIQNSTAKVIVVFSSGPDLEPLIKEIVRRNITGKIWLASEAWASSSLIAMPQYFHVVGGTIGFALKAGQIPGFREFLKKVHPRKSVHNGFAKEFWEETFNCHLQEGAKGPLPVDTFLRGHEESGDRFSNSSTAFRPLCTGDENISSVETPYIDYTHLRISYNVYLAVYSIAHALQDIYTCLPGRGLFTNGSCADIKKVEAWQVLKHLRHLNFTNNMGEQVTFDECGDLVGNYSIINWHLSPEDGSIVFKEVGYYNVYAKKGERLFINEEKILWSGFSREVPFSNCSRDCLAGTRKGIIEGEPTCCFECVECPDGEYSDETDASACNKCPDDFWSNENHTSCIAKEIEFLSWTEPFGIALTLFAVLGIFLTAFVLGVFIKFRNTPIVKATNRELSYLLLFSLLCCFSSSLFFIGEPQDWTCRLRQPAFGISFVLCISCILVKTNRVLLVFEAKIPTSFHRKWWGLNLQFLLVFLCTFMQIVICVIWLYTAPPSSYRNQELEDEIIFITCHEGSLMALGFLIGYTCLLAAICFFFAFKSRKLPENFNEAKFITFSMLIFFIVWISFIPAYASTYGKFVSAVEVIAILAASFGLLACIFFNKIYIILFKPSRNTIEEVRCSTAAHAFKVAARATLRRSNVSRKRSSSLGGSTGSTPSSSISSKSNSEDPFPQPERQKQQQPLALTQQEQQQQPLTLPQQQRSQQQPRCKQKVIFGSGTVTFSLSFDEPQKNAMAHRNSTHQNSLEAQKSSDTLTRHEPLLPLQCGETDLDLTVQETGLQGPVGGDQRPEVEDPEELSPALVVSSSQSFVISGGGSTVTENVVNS
The assay can be described thus: calcium mobilization fluorescence (FLIPR) assay, agonist mode. The following applies: transfected HEK 293 cells; 1 mM calcium standard; Tables 2-7; read-out: In Vitro: CS50, where potency is at 50% of the calcium standard potency. The class given is cell-based. As to the method:
(§1) In vitro potency is measured via calcium mobilization in a fluorescence assay using HEK 293 cells transfected to express the same calcium sensing receptor as found in the human parathyroid gland. In this assay calcium-sensing receptor agonists and antagonists are detected. The assay is conducted in a 96-well plate format with the use of FLIPR (fluorescent imaging plate reader; Molecular Devices, Sunnyvale, Calif.). The HEK 293 cell media is replaced with the fluorescence dye FLUO-3AM and Pluronic detergent in FLIPR assay buffer. Cells are incubated 60 min (in the dark, at room temperature), then washed with assay buffer and placed in FLIPR. Images are collected by FLIPR in the absence of test compound, then in the presence of test compound (at 25 µM) and then after addition of a calcium challenge (at 1 mM). In the agonist assay the difference between maximum and minimum fluorescence values is measured following test compound addition. Hits have a change in fluorescence greater than or equal to 50% of that seen with a 1 mM calcium standard. In the antagonist assay the difference between maximum and minimum fluorescence values is measured following the calcium challenge addition. When compared to challenge in the absence of test compound, hits reduce fluorescence by at least 50%. In vivo activity is measured via parathyroid hormone (PTH) supression by test compounds in a rat model. Compound is administered orally using 0.5% Tween 80 in distilled water as vehicle, with a volume of approximately 10 mL/kg body weight. Blood samples are taken at 15 minutes (and 4 h if required) post oral dosing. Serum PTH levels are determined with an immunoradiometric assay.
(§2) Not all compounds were tested in each of the screens. […] Each entry represents a mixture of cis and trans cyclopropanes (R,S; S,R; R,R; S,S) with R absolute configuration when R^3=CH3. Table 2 lists compounds that are trans at the cyclopropane (R,R; S,S) with R absolute configuration at the benzylamine position, or without stereochemistry at the benzylamine. Table 3 lists compounds with R,R absolute stereochemistry at the cyclopropane and a mixture of stereochemistry at the benzylamine position. 20. In vitro data in Table 1 is percent activation of the calcium-sensing receptor versus baseline. In vitro data in Tables 2-7 is expressed as a CS50, where potency is at 50% of the calcium standard potency, and the unit is μM. In vivo data represents % blood serum PTH vs. vehicle at 30 mg/kg test compound, levels measured after 15 minutes.

Assay [2] has as its system parathyroid hormone (PTH). The assay can be described thus: parathyroid hormone (PTH) suppression in a rat model. Type of assay: in vivo. The following applies: 30 mg/kg test compound, levels measured after 15 minutes; for change in vivo at 30 mg/kg: Rattus norvegicus, po, 0.25 h, read-out: In Vivo: % blood serum PTH vs. vehicle. As to the method:
as §1, §2

The structures appear in SMILES notation. A value given as a limit tells only on which side of the number the result lay.

From patent US6172091A, “1,2-Disubstituted cyclopropanes” (Ortho-McNeil Pharmaceutical, Inc., priority 1999, dated 2001) come the findings set out here.

Turning to `COc1cccc([C@@H](C)NCC2CC2c2cc(C)ccc2C)c1` (stereo partly drawn) [Compound 33], the EC50 in assay [1] was over 25 µM. The “In Vivo: % blood serum PTH vs. vehicle” value in assay [2] (oral, 30 mg/kg) was -47.6%.
Take `Cc1cccc(C(C)NC[C@@H]2C[C@H]2c2ccccc2)c1` (stereo partly drawn) [Compound 40]: in assay [1], the EC50 was over 25 µM. The change in vivo at 30 mg/kg in assay [2] was -51.2%.
The matching figures for `CC(NC[C@@H]1C[C@H]1c1ccccc1)c1cccc(C(F)(F)F)c1` (stereo partly drawn) [Compound 41]: over 25 µM and -21.4%.
The matching figures for `CCc1cccc(C(C)NC[C@@H]2C[C@H]2c2ccccc2)c1` (stereo partly drawn) [Compound 42]: over 25 µM and -78.9%.
For `CCC(NC[C@@H]1C[C@H]1c1ccccc1)c1cccc(OC)c1` (stereo partly drawn) [Compound 43, N-((R,R)-2-phenylcyclopropanylmethyl)-1-(3-methoxyphenyl)propylamine] the same measures were over 25 µM and -6.3%.
`COc1cccc(C(C)(C)NC[C@@H]2C[C@H]2c2ccccc2)c1` [Compound 44]: the EC50 in assay [1] was over 25 µM. For the same molecule, in assay [2], the change in vivo at 30 mg/kg is -25.8%.
The matching figures for `CC(NC[C@@H]1C[C@H]1c1ccccc1)c1cccc(F)c1` (stereo partly drawn) [Compound 45]: over 25 µM and -19.6%.
On to `CC(NC[C@@H]1C[C@H]1c1ccccc1)c1cccc(Cl)c1` (stereo partly drawn) [Compound 46, N-((R,R)-2-phenylcyclopropanylmethyl)-1-(3-chlorophenyl)ethylamine], for which, in assay [1], the EC50 was over 25 µM. The change in vivo at 30 mg/kg in assay [2] was -15.9%.
The matching figures for `CC(NC[C@@H]1C[C@H]1c1ccccc1)c1ccc2c(c1)OCO2` (stereo partly drawn) [Compound 47]: over 25 µM and -67.3%.
For `C[C@@H](NC[C@@H]1C[C@H]1c1ccccc1)c1cccc(O)c1` [Compound 48] the same measures were 8.7 µM and -41.7%.
For `COc1cccc([C@@H](C)NC[C@@H]2C[C@H]2c2ccccc2)c1` [Compound 49, N-((R,R)-2-phenylcyclopropanylmethyl)-1-(R)-(3-methoxyphenyl)ethylamine] the same measures were 5 µM and -83.6%.
As for `CCOc1cccc([C@@H](C)NC[C@@H]2C[C@H]2c2ccccc2)c1` [Compound 50, N-((R,R)-2-phenylcyclopropanylmethyl)-1-(R)-(3-ethoxyphenyl)ethylamine], the EC50 in assay [1] was determined as 11.9 µM. Moreover, the change in vivo at 30 mg/kg in assay [2] is -57%.
The matching figures for `CC(C)Oc1cccc([C@@H](C)NC[C@@H]2C[C@H]2c2ccccc2)c1` [Compound 51]: over 25 µM and -7.3%.
The matching figures for `C[C@@H](NC[C@@H]1C[C@H]1c1ccccc1)c1cccc(OC2CCCC2)c1` [Compound 52]: 12.2 µM and 26.6%.
Turning to `COc1cccc([C@@H](C)N(C[C@@H]2C[C@H]2c2ccccc2)C(C)=O)c1` [Compound 53], the EC50 in assay [1] was over 25 µM. For the same molecule, the change in vivo at 30 mg/kg in assay [2] is -6.4%.
For `CCC(=O)N(C[C@@H]1C[C@H]1c1ccccc1)[C@H](C)c1cccc(OC)c1` [Compound 54] the same measures were over 25 µM and -33.7%.
The matching figures for `COC(=O)N(C[C@@H]1C[C@H]1c1ccccc1)[C@H](C)c1cccc(OC)c1` [Compound 56]: over 25 µM and -40.9%.
The matching figures for `COc1cccc([C@@H](C)N(C[C@@H]2C[C@H]2c2ccccc2)C(=O)OCC(C)C)c1` [Compound 57]: over 25 µM and -5.3%.
As for `COc1cccc([C@@H](C)N(C[C@@H]2C[C@H]2c2ccccc2)C(=O)CNC(=O)OC(C)(C)C)c1` [Compound 58], the EC50 in assay [1] is over 25 µM. Further, the change in vivo at 30 mg/kg in assay [2] was -12.7%.
Consider `COc1cccc([C@@H](C)NC[C@H]2C[C@@H]2c2ccccc2)c1` [Compound 60], for which the EC50 in assay [1] amounted to 12.9 µM. The change in vivo at 30 mg/kg in assay [2] is -42.1%.
For `COc1cccc([C@@H](C)NC[C@@H]2C[C@@H]2c2ccccc2)c1` [Compound 61] the same measures were 11.2 µM and 0%.
The matching figures for `COc1cccc([C@@H](C)NC[C@H]2C[C@H]2c2ccccc2)c1` [Compound 62]: 17.6 µM and 0%.
The matching figures for `COc1cccc([C@H](C)NC[C@@H]2C[C@H]2c2ccccc2)c1` [Compound 63]: over 25 µM and -40.1%.
Turning to `COc1cccc([C@H](C)NC[C@H]2C[C@@H]2c2ccccc2)c1` [Compound 64], in assay [1], the EC50 was over 25 µM. In assay [2], the change in vivo at 30 mg/kg was -11.7%.
As for `COc1cccc([C@H](C)NC[C@H]2C[C@H]2c2ccccc2)c1` [Compound 65], in assay [1], the EC50 was over 25 µM. The change in vivo at 30 mg/kg in assay [2] was -38.8%.
For `COc1cccc([C@H](C)NC[C@@H]2C[C@@H]2c2ccccc2)c1` [Compound 66] the same measures were over 25 µM and -61.8%.
Take `COc1cccc([C@@H](C)NCC2C(C)C2c2ccccc2)c1` (stereo partly drawn) [Compound 67]: the EC50 in assay [1] came to 10.1 µM. Also, the change in vivo at 30 mg/kg in assay [2] was -92.9%.
Turning to `COc1cccc([C@@H](C)NCC2CC2(C)c2ccccc2)c1` (stereo partly drawn) [Compound 68], the EC50 in assay [1] was over 25 µM. Further, in assay [2], the change in vivo at 30 mg/kg was -94.5%.
As to `COc1cccc([C@@H](C)NC[C@H]2C[C@H]2c2cc(C)ccc2C)c1` [Compound 69], in assay [1], the EC50 is over 25 µM. Further, the change in vivo at 30 mg/kg in assay [2] is -53.9%.
The matching figures for `COc1cccc([C@@H](C)NC[C@@H]2C[C@@H]2c2cc(C)ccc2C)c1` [Compound 70]: 21 µM and -24.7%.
